Source: patent US10508127B2, “Conjugated bisphosphonates for the diagnosis and therapy of bone diseases” (SCV GmbH, priority 2014, dated 2019)
Marks after values point to notes of the source that are not given here.

Tests used:
[1] = Ex vivo biodistribution (organ SUV) in healthy Wistar rats 60 min after tail vein injection; details: for Bone-to-organ ratio Blood / Bone-to-organ ratio Heart / Bone-to-organ ratio Intestine / Bone-to-organ ratio Kidneys / Bone-to-organ ratio Liver / Bone-to-organ ratio Lung / Bone-to-organ ratio Muscle / Bone-to-organ ratio Spleen: Wistar rats after 60 min; for SUV Blood / SUV Femur / SUV Heart / SUV Intestine / SUV Kidneys / SUV Liver / SUV Lung / SUV Muscle / SUV Spleen: Wistar rats, ex vivo, 60 min after injection, SUV (standard deviation) from five animals
Protocol: Under isoflurane anesthesia, 15-18 MBq of the ^68Ga-marked compound or of the ^177Lu-marked compounds, diluted in isotonic saline solution, was applied into the tail vein of healthy Wistar rats (N=5) having a weight between 140 and 220 g. The rats were killed 60 min after injection, organ samples were removed and weighed, and the accumulation of the marked bisphosphonate in the tissue was determined in SUV (standardized uptake value) according to the formula: SUV=(activity per g of tissue)/(injected activity) x body weight.

[2] = In vivo μPET experiments, pharmacological parameters (2-Compartment Model); details: Wistar rats
bone metastases [3] = experiment: PET/CT uptake (SUV max) in a patient with prostate carcinoma and bone metastases; format: in vivo; details: same patient; DOTA^ZOL PET/CT day n, HBED-PSMA^CC PET/CT day n + 2
bone metastases [4] = experiment: First therapeutic application / scintigraphy of [177Lu]DOTA^ZOL in a prostate carcinoma patient with disseminated bone metastases; format: in vivo
Protocol: FIG. 5: Distribution of [^177Lu]DOTA^ZOL in a patient with disseminated bone metastases: [^177Lu]DOTA^ZOL scintigraphy on a patient with prostate carcinoma 6 hours after injection. In a first therapeutic applications [sic], within two months, the PSA value (which represents an important marker in monitoring the progress of the prostate carcinoma) could be lowered from 478 ng/mL initially to 88 ng/mL after only one treatment with 5.5 GBq [^177Lu]DOTA^ZOL. ^177Lu-DOTAM^ZOL may be used equivalently.

O=C(O)CN1CCN(CC(=O)O)CCN(CC(=O)NCCc2cn(CC(O)(P(=O)(O)O)P(=O)(O)O)cn2)CCN(CC(=O)O)CC1.[68Ga+3] [[^68Ga]DOTA^ZOL]
Bone-to-organ ratio Blood [1]: 11.47
Bone-to-organ ratio Heart [1]: 37.97
Bone-to-organ ratio Intestine [1]: 38.67
Bone-to-organ ratio Kidneys [1]: 10.22
Bone-to-organ ratio Liver [1]: 19.21
Bone-to-organ ratio Lung [1]: 12.06
Bone-to-organ ratio Muscle [1]: 65.96
Bone-to-organ ratio Spleen [1]: 31.71
SUV Blood [1]: 0.47 (0.19)^† SUV
SUV Femur [1]: 5.40 (0.62)^†‡ SUV
SUV Heart [1]: 0.14 (0.04)^†‡ SUV
SUV Intestine [1]: 0.14 (0.08)^ SUV
SUV Kidneys [1]: 0.53 (0.04)^ SUV
SUV Liver [1]: 0.28 (0.03)^‡ SUV
SUV Lung [1]: 0.45 (0.11)^ SUV
SUV Muscle [1]: 0.08 (0.02)^† SUV
SUV Spleen [1]: 0.17 (0.02)^‡ SUV
Elimination half-life t1/2(α) [2]: 5 min
Elimination half-life t1/2(β) [2]: 2.3 h
SUV max, bone lesion 8th right rear rib (bone metastases [3]): 7.99 SUV max
SUV max, bone lesion C4 vertebral body and hip pedicle (bone metastases [3]): 12.38 SUV max
SUV max, bone lesion L2 vertebral body (bone metastases [3]): 68.92 SUV max
SUV max, bone lesion L3 vertebral body (bone metastases [3]): 62.96 SUV max
SUV max, bone lesion L4 vertebral body (bone metastases [3]): 34.51 SUV max
SUV max, bone lesion L5 vertebral body (bone metastases [3]): 21.94 SUV max
SUV max, bone lesion Left bones, upper ischium, and pubic bone (bone metastases [3]): 62.32 SUV max
SUV max, bone lesion Right acetabulum (bone metastases [3]): 25.39 SUV max
SUV max, bone lesion Right ischium (bone metastases [3]): 32.55 SUV max
SUV max, bone lesion Sacrum (bone metastases [3]): 17.98 SUV max
SUV max, bone lesion T9 vertebral body (bone metastases [3]): 17.08 SUV max
SUV max, bone lesion T11 vertebral body (bone metastases [3]): 32.29 SUV max
SUV max, soft tissue Bladder (bone metastases [3]): 15.53 SUV max
SUV max, soft tissue Left kidney (bone metastases [3]): 4.12 SUV max
SUV max, soft tissue Left parotid gland (bone metastases [3]): 1.46 SUV max
SUV max, soft tissue Liver (bone metastases [3]): 2.85 SUV max
SUV max, soft tissue Right kidney (bone metastases [3]): 9.34 SUV max
SUV max, soft tissue Right parotid gland (bone metastases [3]): 1.22 SUV max
SUV max, soft tissue Spleen (bone metastases [3]): 4.50 SUV max

O=C(O)CN1CCN(CC(=O)O)CCN(CC(=O)NCCC(P(=O)(O)O)P(=O)(O)O)CCN(CC(=O)O)CC1.[68Ga+3] [[^68Ga]BPAPD]
Bone-to-organ ratio Blood [1]: 3.73
Bone-to-organ ratio Heart [1]: 10.03
Bone-to-organ ratio Intestine [1]: 12.35
Bone-to-organ ratio Kidneys [1]: 5.73
Bone-to-organ ratio Liver [1]: 8.68
Bone-to-organ ratio Lung [1]: 7.47
Bone-to-organ ratio Muscle [1]: 18.88
Bone-to-organ ratio Spleen [1]: 13.96
SUV Blood [1]: 0.86 (0.21) SUV
SUV Femur [1]: 3.21 (0.29) SUV
SUV Heart [1]: 0.32 (0.09) SUV
SUV Intestine [1]: 0.26 (0.05) SUV
SUV Kidneys [1]: 0.56 (0.08) SUV
SUV Liver [1]: 0.37 (0.11) SUV
SUV Lung [1]: 0.43 (0.08) SUV
SUV Muscle [1]: 0.17 (0.02) SUV
SUV Spleen [1]: 0.23 (0.08) SUV
Elimination half-life t1/2(α) [2]: 5 min
Elimination half-life t1/2(β) [2]: 4 h

O=C(O)CN1CCN(CC(=O)O)CCN(CC(=O)NCCc2cn(CC(O)(P(=O)(O)O)P(=O)(O)O)cn2)CCN(CC(=O)O)CC1.[177Lu+3] [[^177Lu]DOTA^ZOL]
Selectivity of distribution (bone metastases [4]; first clinical studies, FIG. 5 scintigraphy 6 hours after injection): high selectivity
PSA value after treatment (bone metastases [4]; prostate carcinoma patient, within two months after only one treatment with 5.5 GBq, initially 478 ng/mL): 88 ng/mL

O=C(O)CN1CCN(CC(=O)O)CCN(CC(=O)NCCC(O)(P(=O)(O)O)P(=O)(O)O)CCN(CC(=O)O)CC1.[68Ga+3] [[^68Ga]DOTA^PAM]
Bone-to-organ ratio Blood [1]: 7.61
Bone-to-organ ratio Heart [1]: 19.49
Bone-to-organ ratio Intestine [1]: 16.11
Bone-to-organ ratio Kidneys [1]: 9.44
Bone-to-organ ratio Liver [1]: 10.02
Bone-to-organ ratio Lung [1]: 8.61
Bone-to-organ ratio Muscle [1]: 47.96
Bone-to-organ ratio Spleen [1]: 14.51
SUV Blood [1]: 0.60 (0.03) SUV
SUV Femur [1]: 4.53 (0.17) SUV
SUV Heart [1]: 0.23 (0.02) SUV
SUV Intestine [1]: 0.28 (0.12) SUV
SUV Kidneys [1]: 0.48 (0.06) SUV
SUV Liver [1]: 0.43 (0.04) SUV
SUV Lung [1]: 0.53 (0.16) SUV
SUV Muscle [1]: 0.09 (0.02) SUV
SUV Spleen [1]: 0.31 (0.04) SUV
Elimination half-life t1/2(α) [2]: 4.5 min
Elimination half-life t1/2(β) [2]: 4.5 h
